# Results published in ChEMBL document CHEMBL1201862, “PubChem BioAssay data set” (2004).
#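 Method: 48-hour compound exposure of cells in 96-well plates, five concentrations, linear interpolation of endpoints. At the GI50, growth is halved.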 Calls of active or inactive are those of the source. Cut-off read from the data, not from the text of the source: active = GI50 up to about 1.1 µM and inactive = higher.
# Experiments:
# Test in all cases: inhibition of tumour cell growth, NCI panel, 48 h
# NCI-H23 = tested on: NCI-H23
# HOP-62 = tested on: HOP-62
# OVCAR-4 = tested on: OVCAR-4
# 786-0 = tested on: 786-0
# NCI-H460 = tested on: NCI-H460
# UACC-62 = tested on: UACC-62
# M14 = tested on: M14
# DMS-114 = tested on: DMS-114
# SK-MEL-28 = tested on: SK-MEL-28
# ACHN = tested on: ACHN
# RPMI-8226 = tested on: RPMI-8226
# NCI-H522 = tested on: NCI-H522
# T47D = tested on: T47D
# HCC 2998 = tested on: HCC 2998
# A549 = tested on: A549
# OVCAR-3 = tested on: OVCAR-3
# SN12C = tested on: SN12C
# SW-620 = tested on: SW-620
# CCRF-CEM = tested on: CCRF-CEM
# NCI/ADR-RES = tested on: NCI/ADR-RES
SMILES,GI50 (NCI-H23),GI50 (HOP-62),GI50 (OVCAR-4),GI50 (786-0),GI50 (NCI-H460),GI50 (UACC-62),GI50 (M14),GI50 (DMS-114),GI50 (SK-MEL-28),GI50 (ACHN),GI50 (RPMI-8226),GI50 (NCI-H522),GI50 (T47D),GI50 (HCC 2998),GI50 (A549),GI50 (OVCAR-3),GI50 (SN12C),GI50 (SW-620),GI50 (CCRF-CEM),GI50 (NCI/ADR-RES)
CC(=O)OC1C(O)C(C)OC(OC2C(OC(=O)C3CCC4C(C3)OC3(CC(OC(=O)/C=C/c5ccccc5)C(C)CO3)C43CO3)OC(C)C(O)C2OC(C)=O)C1O (configuration not stated),0.0123 µM (active),0.00951 µM (active),0.00752 µM (active),0.0132 µM (active),0.0131 µM (active),0.0108 µM (active),0.00433 µM (active),0.0251 µM (active),0.008 µM (active),0.0925 µM (active),0.00227 µM (active),0.00284 µM (active),0.00216 µM (active),0.00358 µM (active),0.0557 µM (active),0.0115 µM (active),0.0203 µM (active),0.0111 µM (active),0.00351 µM (active),
COc1cccc2c1C(=O)OC2c1cccc2ccccc12 (configuration not stated),> 100 µM (inactive),36 µM (inactive),37.8 µM (inactive),50.8 µM (inactive),98.9 µM (inactive),> 100 µM (inactive),> 100 µM (inactive),> 100 µM (inactive),> 100 µM (inactive),> 100 µM (inactive),> 100 µM (inactive),> 100 µM (inactive),> 100 µM (inactive),> 100 µM (inactive),> 100 µM (inactive),74.8 µM (inactive),> 100 µM (inactive),> 100 µM (inactive),> 100 µM (inactive),53.3 µM (inactive)
O=C(NC1=C(Cl)C(=O)c2ccccc2C1=O)C(=O)C(C(=O)c1ccc2ccccc2c1)C1OC(=O)c2ccccc21 (configuration not stated),2.9 µM (inactive),5.82 µM (inactive),6.97 µM (inactive),5.92 µM (inactive),2.96 µM (inactive),1.73 µM (inactive),2.18 µM (inactive),2.36 µM (inactive),4.59 µM (inactive),7.29 µM (inactive),2.05 µM (inactive),3.94 µM (inactive),5.35 µM (inactive),9.55 µM (inactive),4.72 µM (inactive),2.7 µM (inactive),4.36 µM (inactive),5.13 µM (inactive),2.87 µM (inactive),
CC(C)C(NCc1c2ccccc2[n+](C)c2ccccc12)C(=O)O (configuration not stated),8.43 µM (inactive),13.8 µM (inactive),7.62 µM (inactive),4.66 µM (inactive),5.94 µM (inactive),3.56 µM (inactive),4.49 µM (inactive),2.28 µM (inactive),12.9 µM (inactive),3.53 µM (inactive),0.603 µM (active),2.15 µM (inactive),,14.8 µM (inactive),8.22 µM (inactive),5.81 µM (inactive),5.58 µM (inactive),3.7 µM (inactive),0.627 µM (active),
COC(=O)c1cc2c3ccccc3n(C(C)=O)c2cn1,83.4 µM (inactive),59.6 µM (inactive),60 µM (inactive),> 100 µM (inactive),35.6 µM (inactive),76.9 µM (inactive),> 100 µM (inactive),> 100 µM (inactive),> 100 µM (inactive),53.8 µM (inactive),45.4 µM (inactive),53.1 µM (inactive),,> 100 µM (inactive),> 100 µM (inactive),98.6 µM (inactive),> 100 µM (inactive),> 100 µM (inactive),38.8 µM (inactive),
N#CC(N)(C(=O)C(=O)NCCCNC(=O)C(=O)C(N)(C#N)c1ccc(Cl)cc1)c1ccc(Cl)cc1 (configuration not stated),> 100 µM (inactive),> 100 µM (inactive),> 100 µM (inactive),> 100 µM (inactive),> 100 µM (inactive),> 100 µM (inactive),> 100 µM (inactive),> 100 µM (inactive),> 100 µM (inactive),> 100 µM (inactive),> 100 µM (inactive),> 100 µM (inactive),,> 100 µM (inactive),> 100 µM (inactive),> 100 µM (inactive),> 100 µM (inactive),> 100 µM (inactive),> 100 µM (inactive),
